The values that follow come from ChEMBL document CHEMBL2429715, “Potent P-glycoprotein inhibition of emodin derivative: synthesis and biological evaluation” (Med Chem Res, 2013).

One data set concerns HepG2. Nature of the data set: Growth inhibition of human HepG2 cells at 10 uM after 48 hrs by MTT assay relative to control. Type of data set: functional. The settings on record: HepG2, 48 h, read-out: GI. (Formazan colour is commonly taken as a measure of viable cells.)
Data set [1] has as its target T1, ATP-dependent translocase ABCB1 (Homo sapiens, UniProt P08183). Nature of the data set: Inhibition of P-glycoprotein in human K562/ADR cells after 30 mins by rhodamine 123 staining-based fluorescence assay. In kind it is cell-based. The settings on record: 0.5 h.
Another data set deals with HCT-116. Nature of the data set: Growth inhibition of human HCT116 cells at 10 uM after 48 hrs by MTT assay relative to control. The settings on record: HCT-116, 48 h, read-out: GI. In kind it is functional.
The nature of data set [2]: Growth inhibition of human QSG7701 cells at 10 uM after 48 hrs by MTT assay relative to control. The settings on record: read-out: GI.
The target in data set [3] is T1, ATP-dependent translocase ABCB1. Nature of the data set: Inhibition of P-glycoprotein in human K562/ADR cells at 10 to 20 uM after 30 mins by rhodamine 123 staining-based fluorescence assay. In kind it is cell-based. The settings on record: 0.5 h.
Another data set concerns K562. Nature of the data set: Growth inhibition of human K562 cells at 10 uM after 48 hrs by MTT assay relative to control. Type of data set: functional. The settings on record: K562, 48 h, read-out: GI.
Data set [4] addresses T1, ATP-dependent translocase ABCB1. Nature of the data set: Inhibition of P-glycoprotein in human K562/ADR cells at 20 to 50 uM after 30 mins by rhodamine 123 staining-based fluorescence assay. Particulars: 0.5 h; call rule not given here. Type of data set: cell-based.

T1 sequence (P08183 whole entry): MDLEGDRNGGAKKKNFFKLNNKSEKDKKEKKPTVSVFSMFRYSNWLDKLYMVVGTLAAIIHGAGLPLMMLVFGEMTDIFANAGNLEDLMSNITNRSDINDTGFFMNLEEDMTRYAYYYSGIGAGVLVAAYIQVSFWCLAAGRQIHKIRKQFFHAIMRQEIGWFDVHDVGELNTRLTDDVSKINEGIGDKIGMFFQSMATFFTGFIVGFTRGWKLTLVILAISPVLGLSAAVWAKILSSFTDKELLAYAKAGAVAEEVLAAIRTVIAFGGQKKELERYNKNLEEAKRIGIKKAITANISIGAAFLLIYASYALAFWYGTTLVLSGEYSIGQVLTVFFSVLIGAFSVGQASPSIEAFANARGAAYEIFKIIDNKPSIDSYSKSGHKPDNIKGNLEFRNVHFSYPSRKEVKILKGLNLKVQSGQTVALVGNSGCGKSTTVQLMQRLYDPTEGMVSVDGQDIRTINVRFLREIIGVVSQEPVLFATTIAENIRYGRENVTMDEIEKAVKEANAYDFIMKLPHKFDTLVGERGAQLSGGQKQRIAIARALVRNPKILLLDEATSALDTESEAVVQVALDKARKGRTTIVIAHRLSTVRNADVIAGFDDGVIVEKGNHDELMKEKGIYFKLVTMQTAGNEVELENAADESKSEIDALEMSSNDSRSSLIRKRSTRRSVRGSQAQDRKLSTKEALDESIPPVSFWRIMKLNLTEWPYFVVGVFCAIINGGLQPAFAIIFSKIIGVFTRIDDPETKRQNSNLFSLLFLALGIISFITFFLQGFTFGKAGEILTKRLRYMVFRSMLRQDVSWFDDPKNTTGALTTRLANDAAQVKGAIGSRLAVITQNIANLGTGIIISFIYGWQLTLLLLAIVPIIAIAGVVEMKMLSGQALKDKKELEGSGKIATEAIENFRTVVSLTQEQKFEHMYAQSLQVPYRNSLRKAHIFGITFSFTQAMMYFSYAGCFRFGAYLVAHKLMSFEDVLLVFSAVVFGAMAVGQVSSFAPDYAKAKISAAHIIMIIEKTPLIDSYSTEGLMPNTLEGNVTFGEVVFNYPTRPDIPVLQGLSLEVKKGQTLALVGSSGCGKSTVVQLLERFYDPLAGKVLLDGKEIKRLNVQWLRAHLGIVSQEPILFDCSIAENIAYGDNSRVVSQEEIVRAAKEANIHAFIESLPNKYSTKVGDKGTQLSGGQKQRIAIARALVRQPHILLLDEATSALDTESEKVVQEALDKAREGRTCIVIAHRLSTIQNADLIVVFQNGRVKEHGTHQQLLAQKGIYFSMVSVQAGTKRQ

Regarding `COc1cc(OC)c2c(c1)C(=O)c1cc(CNCCCNCCCN)cc(OC)c1C2=O.Cl`, the inhibition of growth at 10 µM in the data set on HepG2 stood at 5.85%; with HCT-116, 15.3%; in the data set on K562, 0.01%. The entries for the “inhibition (INH)” value in data set [1] and in data set [3] were “Dose-dependent effect” and “Active”, respectively. Further, in data set [2], the inhibition at 48 h, 10 µM was 0.01%.

Take `COc1cc(OC)c2c(c1)C(=O)c1cc(CNCCCN)cc(OC)c1C2=O.Cl.Cl`: the inhibition of growth at 10 µM was found to be 0.01% with HepG2, 31.9% with HCT-116 and 0.01% with K562. Besides, the “inhibition (INH)” value in data set [4] is “Not Active”. For the same compound, in data set [2], the inhibition at 48 h, 10 µM is 5.77%.

Consider `COc1cc(OC)c2c(c1)C(=O)c1cc(CNCCCCN)cc(OC)c1C2=O.Cl.Cl`, for which the inhibition of growth at 10 µM with HepG2 was found to be 0.01%; in the data set on HCT-116, 27.5%; in the data set with K562 it was 0.01%. The “inhibition (INH)” value in data set [4] is “Not Active”. The inhibition at 48 h, 10 µM in data set [2] worked out at 0.01%.

As to `COc1cc(OC)c2c(c1)C(=O)c1cc(CNCCN)cc(OC)c1C2=O.Cl.Cl`, the inhibition of growth at 10 µM in the data set on HepG2 came to 0.01%; in the data set on HCT-116, 25.4%; with K562, 0.01%. For the same compound, the “inhibition (INH)” value in data set [4] was “Not Active”. Moreover, the inhibition at 48 h, 10 µM in data set [2] worked out at 2.55%.

For the compound `O=C1c2c(O)ccc(O)c2C(=O)c2c(NCCNCCO)ccc(NCCNCCO)c21` [MITOXANTRONE], the inhibition of growth at 10 µM with HepG2 was 62.7%; with HCT-116, 53.2%; with K562, 52.1%. For the same compound, the inhibition at 48 h, 10 µM in data set [2] worked out at 59%.

For `COc1ccc(CCN(C)CCCC(C#N)(c2ccc(OC)c(OC)c2)C(C)C)cc1OC` (stereo unspecified) [VERAPAMIL], in data set [3], the “inhibition (INH)” value is recorded as “Active”.
